Laboratory results: US6331555A, “Treatment of platelet derived growth factor related disorders such as cancers” (priority 1999, dated 2001)
Read-outs that look alike come from different tables or passages of the source.

What was measured:
[1] = system: C6 cells; assay: CTL generation in tumor-bearing rats (MLTC); assay type: in vivo, rat; conditions: 8.4 mg/kg/day
Experimental: Wistar rats received SC implants of C6 cells on day 0. […] The control group was not treated after tumor implantation. On day 21, the animals were sacrificed and the spleens were removed for in vitro analyses. Splenocytes were stimulated with ConA, LPS, and alloantigen (DA rat spleen cells) as in the murine studies.
The spleen cells from Wistar rats were also assayed for the generation of C6-specific CTL in the MLTC and the results summarized in Table XXI. Spleen cells from tumor-bearing, untreated animals mounted a vigorous CTL response (35% specific lysis at E:T=100:1), while cells from non-tumor bearing control rats mounted a weak response (13% specific lysis at E:T=100:1). Similar to the studies in BALB/c mice, it appeared that the vehicle inhibited the generation of CTL in a 7-day culture.

[2] = system: tumor xenografts; assay: Xenografts of various tumor types in mice; assay type: in vivo
Experimental: Cell lines were grown in appropriate medium (see Appendix 1). Cells were harvested at or near confluency with 0.05% Trypsin-EDTA and pelleted at 450×g for 10 min. Pellets were resuspended in sterile PBS or media (without FBS) to a particular concentration and the cells were implanted into the hindflank of mice. Tumor growth was measured over 3 to 6 weeks using venier calipers. Tumor volumes were calculated as a product of length×width×height unless otherwise indicated. P values were calculated using the Students' t-test.

[3] = system: PA-1; assay: Tumor cell line growth; assay type: cell-based; conditions: Homo sapiens, PA-1, 96 h; ovarian, 4 days
Experimental: (§1) The assay measures protein content of acid-fixed cells using the counterion binding dye sulforhodamine B (SRB, Sigma). […] For other cell lines, the cells (2000 cells/well in 100 μL) were introduced into wells immediately after dispensing the drug solutions. After 4 days (37° C., 5% CO2) the monolayers were washed 3 times with PBS and fixed with 200 μL ice-cold 10% TCA (Fisher Scientific), and kept at 4° C. for 60 min. The TCA was removed and the fixed monolayers were washed 5 times with tap water and allowed to dry completely at room temperature on absorbent paper. The cellular protein was stained for 10 min with 100 μL 0.4% SRB dissolved in 1% acetic acid. After 5 washes with tap water, the dye was solubilized in 10 mM Tris base (100 μL per well) and absorbance read at 570 nm on a Dynatech plate reader model MR5000. Growth inhibition data are expressed as a percentage of absorbance detected in control wells which were treated with 0.4% DMSO alone. DMSO controls were not different from cells grown in regular growth medium. IC50 values were determined using a four parameter curve fit function.
(§2) For K562, DlB, L1210, 7TDl, T27A, and Colo320 DM cells, an MTT assay was used to assess cell growth. […] The cells were incubated at 37° C. for 4 days in a humidified 7% CO2 atmosphere. At the end point, […] of MTT (5 mg/mL in PBS, Sigma) was added to each well. The plates were incubated at 37° C. for 4 hr followed by addition of […] of solubilization solution (20% w/v of SDS in 50% N, N-dimethylformamide, pH 4.7) to each well. The plates were incubated overnight in a sealed container with a humidified atmosphere. The absorbance was determined at 570 nm wavelength with a reference wavelength of 630 nm using an ELISA plate reader.

[4] = system: T98G; assay: Tumor cell line growth; assay type: cell-based; conditions: Homo sapiens, 96 h, glioma, 4 days
Experimental: as §1, §2

[5] = system: SKBR3; assay: Tumor cell line growth; assay type: cell-based; conditions: Homo sapiens, SK-BR-3, 96 h; breast, 4 days
Experimental: as §1, §2

[6] = system: DU145; assay: Tumor cell line growth; assay type: cell-based; conditions: Homo sapiens, DU-145, 96 h; prostate, 4 days
Experimental: as §1, §2

[7] = system: A549; assay: Tumor cell line growth; assay type: cell-based; conditions: Homo sapiens, A549, 96 h; lung, 4 days
Experimental: as §1, §2

[8] = system: A431; assay: Tumor cell line growth; assay type: cell-based; conditions: Homo sapiens, A-431, 96 h; epidermoid, 4 days
Experimental: as §1, §2

[9] = system: SF763T; assay: Tumor cell line growth; assay type: cell-based; conditions: Homo sapiens, 96 h; glioma, 4 days
Experimental: as §1, §2

[10] = system: K562; assay: Tumor cell line growth; assay type: cell-based; conditions: Homo sapiens, K562, 96 h; leukemia, 4 days
Experimental: as §1, §2

[11] = system: U138MG; assay: Tumor cell line growth; assay type: cell-based; conditions: Homo sapiens, U138-MG, 96 h; glioma, 4 days
Experimental: as §1, §2

[12] = system: MDA MB 468; assay: Tumor cell line growth; assay type: cell-based; conditions: Homo sapiens, MDA-MB-468, 96 h; breast, 4 days
Experimental: as §1, §2

[13] = system: U87MG; assay: Tumor cell line growth; assay type: cell-based; conditions: Homo sapiens, U-87 MG, 96 h; glioma, 4 days
Experimental: as §1, §2

[14] = system: SKOV3; assay: Tumor cell line growth; assay type: cell-based; conditions: Homo sapiens
Experimental: as §1, §2

[15] = system: MCF7/HER2; assay: Tumor cell line growth; assay type: cell-based; conditions: Homo sapiens, MCF7, 96 h; breast, 4 days
Experimental: as §1, §2

[16] = system: BT549; assay: Tumor cell line growth; assay type: cell-based; conditions: Homo sapiens, BT-549, 96 h; breast, 4 days
Experimental: as §1, §2

[17] = system: BT474; assay: Tumor cell line growth; assay type: cell-based; conditions: Homo sapiens, BT-474, 96 h; breast, 4 days
Experimental: as §1, §2

[18] = system: ZR 75-1; assay: Tumor cell line growth; assay type: cell-based; conditions: Homo sapiens, ZR-75-1, 96 h; breast, 4 days
Experimental: as §1, §2

[19] = system: U1240; assay: Tumor cell line growth; assay type: cell-based; conditions: 96 h; glioma, 4 days
Experimental: as §1, §2

[20] = system: MCF7; assay: Tumor cell line growth; assay type: cell-based; conditions: Homo sapiens, MCF7, 96 h; breast, 4 days
Experimental: as §1, §2

[21] = system: SF767; assay: Tumor cell line growth; assay type: cell-based
Experimental: as §1, §2

[22] = system: ZR75-30; assay: Tumor cell line growth; assay type: cell-based; conditions: Homo sapiens, ZR-75-30, 96 h; breast, 4 days
Experimental: as §1, §2

[23] = system: HBL100; assay: Tumor cell line growth; assay type: cell-based; conditions: Homo sapiens, HBL-100, 96 h; breast, 4 days
Experimental: as §1, §2

`Cc1oncc1C(=O)Nc1ccc(C(F)(F)F)cc1` [Compound A10, 5-methylisoxazole-4 carboxylic acid-(4-trifluromethyl)-anilide] was tested, and the “CTL generation” value [1] was “did not overcome the inhibitory effect of the vehicle in immunocompetent rats”, the CTL activity ([1]; Tumor stimulus) was 0 and the “growth of xenografts” value ([2]; 12 to 20 mg/kg/day, glioma, SKOV3T, PA-1, A375, PC-3, Calu-6, D1B, L1210) was “effectively inhibited the growth”. The “inhibition of glioma growth” value ([2]; xenografted gliomas in mice, some animals, relative to untreated controls) was “greater than 95%”, the IC50 [3] was 40 µM and the IC50 [4] was 62 µM. The IC50 [5] was > 400 µM, the IC50 [6] was > 100 µM and the IC50 [7] was 118 µM. It also gave an IC50 [8] of 34 µM, an IC50 [9] of 0.8 µM and an IC50 [10] of 26 µM. The IC50 [11] was > 400 µM, the IC50 [12] was 150 µM and the IC50 [13] was 78 µM. For the same compound, the IC50 ([14]; SK-OV-3, 96 h, ovarian, 4 days, read-out: IC50) was > 100 µM, the IC50 ([14]; SK-OV-3, PDGF-R expression -, read-out: SRB) was > 100 µM and the IC50 [15] was 116 µM. The IC50 [16] was > 400 µM, the IC50 [17] was > 100 µM and the IC50 [18] was 355 µM. It also gave an IC50 [19] of 250 µM, an IC50 [20] of 288 µM and an IC50 ([21]; SF767, 96 h, glioma, 4 days, read-out: IC50) of 87 µM. The IC50 ([21]; SF767, PDGF-R expression -, read-out: SRB) was 100 µM, the IC50 [22] was 300 µM and the IC50 [23] was > 400 µM.
